From ChEMBL document CHEMBL1139966, “ERbeta ligands. Part 6: 6H-Chromeno[4,3-b]quinolines as a new series of estrogen receptor beta-selective ligands” (Bioorg Med Chem Lett, 2007) come the findings set out here.

For the assay, the species on record is Homo sapiens. Kind of assay: Selectivity for human ERalpha over ERbeta.

Each structure is given as a SMILES string.

On to `Oc1ccc2c(c1)OCc1c-2nc2ccc(O)cc2c1Br`, for which the Ratio IC50 was 16.

Regarding `Oc1ccc2c(c1)OCc1c-2nc2ccc(O)cc2c1-c1ccc(Cl)cc1`, the Ratio IC50 was found to be 15.

For the compound `Oc1ccc2c(c1)OCc1c-2nc2ccc(O)cc2c1Cl`, the Ratio IC50 is 27. For `COc1cccc(-c2c3c(nc4ccc(O)cc24)-c2ccc(O)cc2OC3)c1`, the Ratio IC50 was found to be 10. As for `CCc1c2c(nc3ccc(O)cc13)-c1ccc(O)cc1OC2`, the figure is 14. With `Oc1ccc(-c2cc(Cl)c3cc(O)ccc3n2)cc1`, the Ratio IC50 is 46.

With `N#Cc1ccc(-c2c3c(nc4ccc(O)cc24)-c2ccc(O)cc2OC3)cc1`, the Ratio IC50 amounted to 16.

For the compound `C#Cc1c2c(nc3ccc(O)cc13)-c1ccc(O)cc1OC2`, the Ratio IC50 stood at 12.

Turning to `N#Cc1c2c(nc3ccc(O)cc13)-c1ccc(O)cc1OC2`, the Ratio IC50 stood at 16. As for `C=Cc1c2c(nc3ccc(O)cc13)-c1ccc(O)cc1OC2`, the Ratio IC50 came to 24.

Take `N#Cc1cccc(-c2c3c(nc4ccc(O)cc24)-c2ccc(O)cc2OC3)c1`: the Ratio IC50 was determined as 8. As to `COc1ccc(-c2c3c(nc4ccc(O)cc24)-c2ccc(O)cc2OC3)cc1`, the Ratio IC50 was found to be 6. Next, `CCc1cc(-c2ccc(O)cc2)nc2ccc(O)cc12`: 12; `Oc1ccc2c(c1)OCc1c-2nc2ccc(O)cc2c1-c1cccc(Cl)c1`: 4. Next, `Oc1ccc2c(c1)OCc1c-2nc2ccc(O)cc2c1-c1ccc(C(F)(F)F)cc1`: 16. On to `C#Cc1cc(-c2ccc(O)cc2)nc2ccc(O)cc12`, for which the Ratio IC50 worked out at 20.
